Results as given in patent US9650339B2, “Inhibitors of histone demethylases” (Gilead Sciences, Inc., priority 2013, dated 2017).

What follows are compounds tested against T1, KDM2A (Homo sapiens, UniProt Q9Y2K7) (assay: Histone lysine demethylase immunofluorescence assay, U2OS cells transfected with KDM2A). Conditions: U2OS cells transfected with pCMVHA KDM2A; mark detected H3K36me2; 20 hours.
T1 construct: Full length; host or cells: U2OS
T1 sequence (Q9Y2K7 1-1162): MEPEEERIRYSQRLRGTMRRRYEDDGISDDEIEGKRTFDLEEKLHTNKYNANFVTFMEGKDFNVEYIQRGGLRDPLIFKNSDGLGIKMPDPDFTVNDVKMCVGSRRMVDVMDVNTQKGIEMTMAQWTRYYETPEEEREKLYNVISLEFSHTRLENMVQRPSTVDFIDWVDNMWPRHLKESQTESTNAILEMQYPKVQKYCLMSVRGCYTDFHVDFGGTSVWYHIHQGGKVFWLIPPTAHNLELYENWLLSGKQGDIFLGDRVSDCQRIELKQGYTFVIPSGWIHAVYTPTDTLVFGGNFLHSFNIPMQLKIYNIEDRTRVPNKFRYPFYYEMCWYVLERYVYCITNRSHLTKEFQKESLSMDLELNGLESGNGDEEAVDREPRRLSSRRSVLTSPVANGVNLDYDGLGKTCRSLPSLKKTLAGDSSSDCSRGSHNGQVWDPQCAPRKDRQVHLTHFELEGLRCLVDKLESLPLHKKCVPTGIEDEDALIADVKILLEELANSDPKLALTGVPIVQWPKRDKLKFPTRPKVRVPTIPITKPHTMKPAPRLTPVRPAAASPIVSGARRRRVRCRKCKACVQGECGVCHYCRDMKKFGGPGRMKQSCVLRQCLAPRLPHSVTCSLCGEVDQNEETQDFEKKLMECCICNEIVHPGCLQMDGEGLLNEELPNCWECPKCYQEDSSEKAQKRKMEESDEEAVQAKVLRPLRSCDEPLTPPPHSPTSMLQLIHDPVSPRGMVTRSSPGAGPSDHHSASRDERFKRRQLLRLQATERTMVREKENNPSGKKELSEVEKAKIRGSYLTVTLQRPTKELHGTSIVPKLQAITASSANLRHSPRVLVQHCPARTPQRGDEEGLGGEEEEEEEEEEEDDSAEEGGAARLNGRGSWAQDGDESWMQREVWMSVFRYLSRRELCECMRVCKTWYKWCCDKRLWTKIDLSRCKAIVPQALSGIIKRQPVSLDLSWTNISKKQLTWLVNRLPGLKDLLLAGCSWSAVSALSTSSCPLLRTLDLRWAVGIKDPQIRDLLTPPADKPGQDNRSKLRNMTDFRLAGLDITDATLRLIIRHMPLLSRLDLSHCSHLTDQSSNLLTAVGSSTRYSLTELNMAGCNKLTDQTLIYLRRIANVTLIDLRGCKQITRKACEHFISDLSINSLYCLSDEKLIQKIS
Format: cell-based
Experimental: (§1) U2OS cells were seeded 24 hours before transfection. Transfection was performed with Fugene HD transfection reagent as recommended by the manufacturer. 6 hours after transfection, the cells were harvested and seeded into multi well plates into media containing compound. The media used was DMEM containing 10% FBS and pen/strep. 20 hours after incubation of cells with compounds, the cells were washed in PBS, harvested by fixation with formaldehyde 4% aqueous solution, and washed in PBS. Subsequently, the cells were permeabilized in PBS with 0.2% Triton X-100 for. Blocking was performed in PBS with 0.2% Triton X-100 and 5% FBS. The cells were incubated with primary antibodies in blocking solution over night at 4° C. The primary antibodies used in the assays were HA.11 (Covance, MMS-101P) and the antibody detecting the mark specified in the table below. After incubation with primary antibodies, the cells were washed with PBS, incubated with secondary antibodies (Alexa fluor 594 goat anti rabbit IgG, Invitrogen, A11012; Alexa flour 488 donkey anti mouse IgG, Invitrogen, A21202) and Hoechst, (Sigma, 33342) in blocking solution, and washed again with PBS. Finally, PBS was added and high throughput imaging and analysis were performed by an IN Cell Analyzer 1000 (GE Healthcare). The robot software analyzed individual cells and divided these into HA+ (transfected cells) and HA− (non-transfected cells). The IC50 values were based on an average measure of the staining of the mark specified in the table below in the transfected cells.

IC50 [µM]	SMILES
> 2.5	CN(Cc1ccccc1F)C(=O)CNCc1cc(/C=N/CCO)ccn1 [Compound 92, N-[(2-fluorophenyl)methyl]-2-[({4-[[(2-hydroxyethyl)imino]-methyl]pyridin-2-yl}methyl)amino]-N-methylacetamide]
> 2.5	OCC/N=C/c1ccnc(CNCCc2ccccc2OCc2ccccc2)c1 [Compound 93, 2-[({2-[({2-[2-(benzyloxy)phenyl]-ethyl}amino)methyl]-pyridin-4-yl}methylidene)-amino]ethan-1-ol]
> 2.5	CCN(CCC#N)C(=O)CNCc1cc(/C=N/CCO)ccn1 [Compound 94, N-(2-cyanoethyl)-N-ethyl-2-[({4-[[(2-hydroxyethyl)imino]-methyl]pyridin-2-yl}methyl)amino]-acetamide]
> 2.5	CC(C)C[C@H](NCc1cc(/C=N/CCO)ccn1)C(=O)N1CCCCC1 [Compound 95, (2S)-2-[({4-[[(2-hydroxyethyl)imino]-methyl]pyridin-2-yl}methyl)amino]-4-methyl-1-(piperidin-1-yl)pentan-1-one]
> 2.5	CN(CC(=O)N1CCCCC1)Cc1cc(C=O)ccn1 [Compound 120, 2-({methyl[2-oxo-2-(piperidin-1-yl)ethyl]amino}-methyl)pyridine-4-carbaldehyde]

These compounds were tested against T2, KDM6B (Homo sapiens, UniProt O15054) (assay: Histone lysine demethylase immunofluorescence assay, U2OS cells transfected with KDM6B). Conditions: U2OS cells transfected with pCMVHA KDM6B; mark detected H3K27me2; 20 hours.
T2 construct: (a.a. 1026-1682); host or cells: U2OS
T2 sequence (O15054 1026-1682 isoform O15054-1): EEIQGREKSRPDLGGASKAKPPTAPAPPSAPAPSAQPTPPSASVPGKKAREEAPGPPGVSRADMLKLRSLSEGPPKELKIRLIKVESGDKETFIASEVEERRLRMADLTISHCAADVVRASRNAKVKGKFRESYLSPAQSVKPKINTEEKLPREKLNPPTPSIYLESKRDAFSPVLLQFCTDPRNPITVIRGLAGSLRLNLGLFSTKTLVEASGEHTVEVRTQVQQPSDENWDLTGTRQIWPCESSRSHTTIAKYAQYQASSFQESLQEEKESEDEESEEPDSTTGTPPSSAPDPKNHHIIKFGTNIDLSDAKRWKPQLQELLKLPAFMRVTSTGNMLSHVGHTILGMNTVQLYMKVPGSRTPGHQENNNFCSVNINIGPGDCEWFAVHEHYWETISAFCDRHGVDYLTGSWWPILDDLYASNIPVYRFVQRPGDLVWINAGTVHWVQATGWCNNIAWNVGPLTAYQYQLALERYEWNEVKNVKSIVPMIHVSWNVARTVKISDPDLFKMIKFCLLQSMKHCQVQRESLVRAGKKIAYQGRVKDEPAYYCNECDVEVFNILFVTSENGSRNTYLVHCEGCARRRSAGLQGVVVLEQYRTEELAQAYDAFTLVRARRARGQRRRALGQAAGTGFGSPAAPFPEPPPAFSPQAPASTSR
Format: cell-based
Experimental: as §1

IC50 [µM]	SMILES
> 2.5	CCN(CCN(C)C)C(=O)CNCc1cc(CN)ccn1 [Compound 4, 2-({[4-(aminomethyl)pyridin-2-yl]methyl}amino)-N-[2-(dimethylamino)ethyl]-N-ethylacetamide]
> 2.5	CNC(C#N)c1ccnc(CNCCCN(C)C)c1 (stereo not shown) [Compound 24, 2-[2-({[3-(dimethylamino)propyl]-amino}methyl)pyridin-4-yl]-2-(methylamino)-acetonitrile]
> 2.5	C(=N/C1CC1)/c1ccnc(CNCCCN2CCCC2)c1 [Compound 42, N-{[2-({[3-(pyrrolidin-1-yl)propyl]amino}-methyl)pyridin-4-yl]methylidene}-cyclopropanamine]
> 2.5	CCN(CCN(C)C)C(=O)CNCc1cc(C2OCC(Cc3ccccc3)CN2C(=O)C(F)(F)F)ccn1 (stereo not shown) [Compound 90, 2-[({4-[5-benzyl-3-(trifluoroacetyl)-1,3-oxazinan-2-yl]pyridin-2-yl}methyl)amino]-N-[2-(dimethylamino)-ethyl]-N-ethylacetamide]
> 2.5	CCN(CCN(C)C)C(=O)CNCc1cc(C=O)ccn1 [Compound 101]
> 2.5	CCN(CC)CCCCNCc1cc(C=O)ccn1 [Compound 107, 2-({[4-(diethylamino)-butyl]amino}-methyl)pyridine-4-carbaldehyde]

These compounds were tested against T3, KDM4A (Homo sapiens, UniProt O75164) (assay: Histone lysine demethylase immunofluorescence assay, U2OS cells transfected with KDM4A). Conditions: U2OS cells transfected with pCMVHA KDM4A; mark detected H3K9me3; 20 hours.
T3 construct: Full length; host or cells: U2OS
T3 sequence (O75164 1-1064): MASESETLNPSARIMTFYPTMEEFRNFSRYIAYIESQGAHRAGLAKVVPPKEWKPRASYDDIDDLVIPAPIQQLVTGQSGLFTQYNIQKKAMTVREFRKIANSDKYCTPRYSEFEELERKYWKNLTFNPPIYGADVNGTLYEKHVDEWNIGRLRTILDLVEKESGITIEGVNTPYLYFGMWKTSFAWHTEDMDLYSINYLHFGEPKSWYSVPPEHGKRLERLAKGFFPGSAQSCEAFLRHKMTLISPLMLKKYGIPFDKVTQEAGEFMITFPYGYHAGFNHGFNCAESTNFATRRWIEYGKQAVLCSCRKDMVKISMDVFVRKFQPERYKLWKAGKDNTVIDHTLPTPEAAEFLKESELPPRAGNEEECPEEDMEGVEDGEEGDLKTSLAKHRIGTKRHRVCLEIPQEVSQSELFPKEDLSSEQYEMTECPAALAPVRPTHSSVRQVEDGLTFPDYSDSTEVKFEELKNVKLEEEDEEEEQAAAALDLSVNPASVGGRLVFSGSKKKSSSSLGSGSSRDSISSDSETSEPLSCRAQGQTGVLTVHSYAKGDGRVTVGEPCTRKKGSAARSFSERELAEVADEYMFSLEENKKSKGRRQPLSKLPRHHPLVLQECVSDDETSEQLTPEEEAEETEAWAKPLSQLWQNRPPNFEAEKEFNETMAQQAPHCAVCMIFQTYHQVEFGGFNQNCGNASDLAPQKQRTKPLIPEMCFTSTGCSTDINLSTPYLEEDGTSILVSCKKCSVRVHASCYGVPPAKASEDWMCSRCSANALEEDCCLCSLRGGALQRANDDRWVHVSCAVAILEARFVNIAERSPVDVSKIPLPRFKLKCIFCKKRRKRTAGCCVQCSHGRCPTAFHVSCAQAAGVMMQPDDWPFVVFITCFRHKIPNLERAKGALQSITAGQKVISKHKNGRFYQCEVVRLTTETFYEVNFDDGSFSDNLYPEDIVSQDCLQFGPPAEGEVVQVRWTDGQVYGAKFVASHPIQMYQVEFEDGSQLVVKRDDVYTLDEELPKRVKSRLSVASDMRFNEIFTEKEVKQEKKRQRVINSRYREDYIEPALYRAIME
Format: cell-based
Experimental: as §1

IC50 [µM]	SMILES
> 2.5	COc1ccccc1CN1CCC(NC(=O)CNCc2cc(CN)ccn2)CC1 [Compound 9, 2-({[4-(aminomethyl)pyridin-2-yl]methyl}amino)-N-{1-[(2-methoxyphenyl)methyl]-piperidin-4-yl}acetamide]
0.25 to 2.5	CN(C)C(=O)CNCc1cc(CNCC#N)ccn1 [Compound 13, 2-{[(4-{[(cyanomethyl)amino]-methyl}pyridin-2-yl)methyl]amino}-N,N-dimethylacetamide]
> 2.5	CN(C)CCNCc1ccnc(CNCC(=O)N(C)C)c1 [Compound 15, 2-({[4-({[2-(dimethylamino)ethyl]-amino}methyl)pyridin-2-yl]methyl}amino)-N,N-dimethylacetamide]
> 2.5	CN(C)C(=O)CNCc1cc(/C=N/CCC2CCCCC2)ccn1 [Compound 36, 2-[({4-[[(2-cyclohexylethyl)imino]-methyl]pyridin-2-yl}methyl)amino]-N,N-dimethylacetamide]
> 2.5	CN(CCCNCc1cc(/C=N/C2CC2)ccn1)Cc1ccccc1 [Compound 41, N-({2-[({3-[benzyl(methyl)amino]-propyl}amino)methyl]-pyridin-4-yl}methylidene)-cyclopropanamine]
> 2.5	C(=N/C1CC1)/c1ccnc(CNCCCN2CCCC2)c1 [Compound 42, N-{[2-({[3-(pyrrolidin-1-yl)propyl]amino}-methyl)pyridin-4-yl]methylidene}-cyclopropanamine]
< 0.25	CN(C)CC1CCC(CNCc2cc(/C=N/C3CC3)ccn2)CC1 (stereo not shown) [Compound 46, N-[(2-{[({4-[(dimethylamino)-methyl]cyclohexyl}-methyl)amino]-methyl}pyridin-4-yl)methylidene]-cyclopropanamine]
> 2.5	O=C(CNCc1cc(/C=N/C2CC2)ccn1)NC1CCN(Cc2ccccc2)C1 (stereo not shown) [Compound 53, N-(1-benzylpyrrolidin-3-yl)-2-[({4-[N-cyclopropyl-carboximidoyl]pyridin-2-yl}methyl)amino]-acetamide]
0.25 to 2.5	CCN(CC)CCCCNCc1cc(/C=N/CCOC)ccn1 [Compound 60, [4-(diethylamino)butyl]-({4-[[(2-methoxyethyl)imino]-methyl]pyridin-2-yl}methyl)amine]
< 0.25	CCN(CCN(C)C)C(=O)CNCc1cc(C2OCC(Cc3ccccc3)CN2C(=O)C(F)(F)F)ccn1 (stereo not shown) [Compound 90, 2-[({4-[5-benzyl-3-(trifluoroacetyl)-1,3-oxazinan-2-yl]pyridin-2-yl}methyl)amino]-N-[2-(dimethylamino)-ethyl]-N-ethylacetamide]
< 0.25	CN(C)C/C=C/CNCc1cc(C=O)ccn1 [Compound 98, 2-({[(2E)-4-(dimethylamino)but-2-en-1-yl]amino}-methyl)pyridine-4-carbaldehyde]
0.25 to 2.5	CCN(CCN(C)C)C(=O)CNCc1cc(C=O)ccn1 [Compound 101]
0.25 to 2.5	O=Cc1ccnc(CNCC(=O)N2CCC[C@@H]2CN2CCCC2)c1 [Compound 102, 2-[({2-oxo-2-[(2R)-2-(pyrrolidin-1-ylmethyl)pyrrolidin-1-yl]ethyl}amino)-methyl]pyridine-4-carbaldehyde]
> 2.5	O=Cc1ccnc(CNCCCN2CCCC2)c1 [Compound 111, 2-({[3-(pyrrolidin-1-yl)propyl]amino}-methyl)pyridine-4-carbaldehyde]
